# Measured values taken from patent US20140005163A1 (NOVARTIS AG, priority 2010, published 2014).
# Read-outs that look alike come from different tables or passages of the source.
# How the values were obtained:
# [1] = molecular target: T1, PI3K delta (Homo sapiens, UniProt O00329); test: PI3K delta kinase assay (Kinase-Glo luminescence); assay type: biochemical
# T1 construct: for the full-length p110-d subunit are generated and fused by overlapping PCR; p85(iSH2) fusion partner (see partner chain) (N); His tag (C); made in house; host or cells: baculovirus; Tn5 (Trichoplusia ni) or TiniPro insect cells
# T1 sequence (O00329 with tags, fused parts or gaps limits assumed): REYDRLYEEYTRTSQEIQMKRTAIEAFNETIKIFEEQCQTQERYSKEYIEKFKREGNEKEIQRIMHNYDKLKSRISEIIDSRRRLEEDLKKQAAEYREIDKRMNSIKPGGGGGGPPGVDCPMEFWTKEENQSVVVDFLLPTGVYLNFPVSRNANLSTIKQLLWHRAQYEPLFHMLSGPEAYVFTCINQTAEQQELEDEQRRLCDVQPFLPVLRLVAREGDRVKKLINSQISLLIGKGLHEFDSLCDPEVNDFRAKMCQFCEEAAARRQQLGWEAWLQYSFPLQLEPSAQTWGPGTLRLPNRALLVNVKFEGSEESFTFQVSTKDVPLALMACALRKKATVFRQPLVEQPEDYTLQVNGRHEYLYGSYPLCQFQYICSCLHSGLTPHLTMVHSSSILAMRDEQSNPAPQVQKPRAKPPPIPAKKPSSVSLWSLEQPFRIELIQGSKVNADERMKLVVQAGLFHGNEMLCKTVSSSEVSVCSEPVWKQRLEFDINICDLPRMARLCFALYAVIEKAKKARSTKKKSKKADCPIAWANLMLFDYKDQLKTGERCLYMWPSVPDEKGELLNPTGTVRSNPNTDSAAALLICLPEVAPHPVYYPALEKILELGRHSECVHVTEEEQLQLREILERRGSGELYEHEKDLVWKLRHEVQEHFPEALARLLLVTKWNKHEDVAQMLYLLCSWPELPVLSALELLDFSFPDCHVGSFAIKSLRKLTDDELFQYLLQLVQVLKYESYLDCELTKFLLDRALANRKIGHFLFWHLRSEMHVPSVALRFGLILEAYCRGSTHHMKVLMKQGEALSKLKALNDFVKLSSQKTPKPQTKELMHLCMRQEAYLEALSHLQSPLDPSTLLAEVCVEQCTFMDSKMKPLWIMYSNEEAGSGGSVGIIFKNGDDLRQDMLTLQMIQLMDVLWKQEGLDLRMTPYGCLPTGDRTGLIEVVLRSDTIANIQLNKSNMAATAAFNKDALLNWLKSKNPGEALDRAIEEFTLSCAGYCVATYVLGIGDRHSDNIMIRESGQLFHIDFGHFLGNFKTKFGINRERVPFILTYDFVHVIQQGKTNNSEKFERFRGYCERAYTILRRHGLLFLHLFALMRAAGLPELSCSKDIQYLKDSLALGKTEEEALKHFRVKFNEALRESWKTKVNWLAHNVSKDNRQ
# In short: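 Kinase-Glo luminescence read-out of ATP remaining after 60 min at RT. Enzyme: 10 nM BV1060 (p85 iSH2–p110δ fusion, His-tagged); substrate 10 μg/mL PI, ATP 1 μM final; Tris pH 7.5 buffer with MgCl2, NaCl, CHAPS, DTT. IC50 from 4-parameter logistic fit over 8 concentrations.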
# [2] = system: PKB Ser473 phosphorylation in Rat1-myr-HA-p110 alpha cells; test: Reverse protein array assay, PKB Ser473 phosphorylation in Rat1-myr-p110 alpha cells; assay type: cell-based; settings: 0.5 h, pAkt Ser473, 30 minutes compound incubation, read-out: p-PKB IC50
# In short: (§1)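 Measured: PKB Ser473 phosphorylation by reverse protein array in Rat1 cells expressing myr-HA-p110 alpha, beta or delta, after 30 min compound treatment at 37 °C with 0.2% DMSO vehicle.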
# [3] = Solubility at pH 6.8; assay type: physicochemical
# In short: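 Solubility was measured at pH 6.8 following the cited Zhou et al. (2007) procedure.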
# [4] = system: PKB Ser473 phosphorylation in Rat1-myr-HA-p110 beta cells; test: Reverse protein array assay, PKB Ser473 phosphorylation in Rat1-myr-p110 beta cells; assay type: cell-based; settings: 0.5 h, pAkt Ser473, 30 minutes incubation, read-out: p-PKB IC50
# In short: as §1
# [5] = pH 6.8, aqueous buffer, thermodynamic from solid, read-out: solubility
IC50 [1],IC50 [2],"solubility [3, 5]",IC50 [4],solubility ([3]; pH 6.8),SMILES
14 nM,63 nM,439 µg/mL,114 nM,–,"COCc1ncc(-c2ccc3ncc4c(c3c2)n(-c2cn(C)nc2C)c(=O)n4C)cc1OC [Example 195.1, 1-(1,3-Dimethyl-1H-pyrazol-4-yl)-8-(5-methoxy-6-methoxymethyl-pyridin-3-yl)-3-methyl-1,3-dihydro-imidazo[4,5-c]quinolin-2-one]"
35 nM,48 nM,> 473 µg/mL,189 nM,–,"COCc1ncc(-c2ccc3ncc4c(c3c2)n(-c2cn(C(C)C)nc2C)c(=O)n4C)cc1OC [Example 195.2, 1-(1-Isopropyl-3-methyl-1H-pyrazol-4-yl)-8-(5-methoxy-6-methoxymethyl-pyridin-3-yl)-3-methyl-1,3-dihydro-imidazo[4,5-c]quinolin-2-one]"
34 nM,92 nM,> 459 µg/mL,184 nM,–,"CCn1cc(-n2c(=O)n(C)c3cnc4ccc(-c5cnc(COC)c(OC)c5)cc4c32)c(C)n1 [Example 195.3, 1-(1-Ethyl-3-methyl-1H-pyrazol-4-yl)-8-(5-methoxy-6-methoxymethyl-pyridin-3-yl)-3-methyl-1,3-dihydro-imidazo[4,5-c]quinolin-2-one]"
11 nM,43 nM,> 428 µg/mL,113 nM,–,"Cc1nn(C)cc1-n1c(=O)n(C)c2cnc3ccc(-c4cncc(C(C)(C)O)c4)cc3c21 [Example 215.2, 1-(1,3-Dimethyl-1H-pyrazol-4-yl)-8-[5-(1-hydroxy-1-methyl-ethyl)-pyridin-3-yl]-3-methyl-1,3-dihydro-imidazo[4,5-c]quinolin-2-one]"
8 nM,10 nM,–,18 nM,2 µg/mL,"Cc1nn(C)cc1-n1c(=O)n(C)c2cnc3ccc(-c4cncc(C(C)(C)C#N)c4)cc3c21 [Example 220.1, 2-{5-[1-(1,3-Dimethyl-1H-pyrazol-4-yl)-3-methyl-2-oxo-2,3-dihydro-1H-imidazo[4,5-c]quinolin-8-yl]-pyridin-3-yl}-2-methyl-propionitrile]"
41 nM,104 nM,16 µg/mL,130 nM,–,"CNC(=O)c1cc(-c2ccc3ncc4c(c3c2)n(-c2cn(C(C)C)nc2C)c(=O)n4C)cnc1N [Example 224.2, 2-Amino-5-[1-(1-isopropyl-3-methyl-1H-pyrazol-4-yl)-3-methyl-2-oxo-2,3-dihydro-1H-imidazo[4,5-c]quinolin-8-yl]-N-methyl-nicotinamide]"
< 3 nM,13 nM,22 µg/mL,26 nM,–,"COc1ncc(-c2ccc3ncc4c(c3c2)n(-c2cn(C)nc2C)c(=O)n4C)c(OC)n1 [Example 234.2, 8-(2,4-Dimethoxy-pyrimidin-5-yl)-1-(1,3-dimethyl-1H-pyrazol-4-yl)-3-methyl-1,3-dihydro-imidazo[4,5-c]quinolin-2-one]"

# The next lines start with the molecule.
SMILES,IC50 [1],IC50 [2],"solubility [3, 5]",IC50 [4],solubility ([3]; pH 6.8)
"COCc1ncc(-c2ccc3ncc4c(c3c2)n(-c2cn(C)nc2C)c(=O)n4C)cc1OC(C)C [Example 191.1, 1-(1,3-Dimethyl-1H-pyrazol-4-yl)-8-(5-isopropoxy-6-methoxymethyl-pyridin-3-yl)-3-methyl-1,3-dihydro-imidazo[4,5-c]quinolin-2-one]",6 nM,14 nM,> 473 µg/mL,54 nM,–
"COc1cc(-c2ccc3ncc4c(c3c2)n(-c2cn(C)nc2C)c(=O)n4C)cnc1CO [Example 193, 1-(1,3-Dimethyl-1H-pyrazol-4-yl)-8-(6-hydroxymethyl-5-methoxy-pyridin-3-yl)-3-methyl-1,3-dihydro-imidazo[4,5-c]quinolin-2-one]",17 nM,8 nM,150 µg/mL,160 nM,–
"[2H]C([2H])([2H])OCc1ncc(-c2ccc3ncc4c(c3c2)n(-c2cn(C)nc2Cl)c(=O)n4C)cc1OC [Example 199, 1-(3-Chloro-1-methyl-1H-pyrazol-4-yl)-8-(5-methoxy-6-trideuteromethoxymethyl-pyridin-3-yl)-3-methyl-1,3-dihydro-imidazo[4,5-c]quinolin-2-one]",5 nM,23 nM,8 µg/mL,26 nM,–
"COCc1cc(-c2ccc3ncc4c(c3c2)n(-c2cn(C)nc2C)c(=O)n4C)cnc1OC [Example 202, 1-(1,3-Dimethyl-1H-pyrazol-4-yl)-8-(6-methoxy-5-methoxymethyl-pyridin-3-yl)-3-methyl-1,3-dihydro-imidazo[4,5-c]quinolin-2-one]",6 nM,23 nM,16 µg/mL,29 nM,–
"Cc1nn(C)cc1-n1c(=O)n(C)c2cnc3ccc(-c4cnc5c(c4)OCCN5C)cc3c21 [Example 209, 1-(1,3-Dimethyl-1H-pyrazol-4-yl)-3-methyl-8-(4-methyl-3,4-dihydro-2H-pyrido[3,2-b][1,4]oxazin-7-yl)-1,3-dihydro-imidazo[4,5-c]quinolin-2-one]",9 nM,18 nM,–,22 nM,2 µg/mL
"Cc1nn(C)cc1-n1c(=O)n(C)c2cnc3ccc(-c4cncc(C5(O)CCCC5)c4)cc3c21 [Example 218, 1-(1,3-Dimethyl-1H-pyrazol-4-yl)-8-[5-(1-hydroxy-cyclopentyl)-pyridin-3-yl]-3-methyl-1,3-dihydro-imidazo[4,5-c]quinolin-2-one]",6 nM,22 nM,14 µg/mL,27 nM,–
"CCn1cc(-n2c(=O)n(C)c3cnc4ccc(-c5cnc(NC)nc5OC)cc4c32)c(C)n1 [Example 236, 1-(1-Ethyl-3-methyl-1H-pyrazol-4-yl)-8-(4-methoxy-2-methylamino-pyrimidin-5-yl)-3-methyl-1,3-dihydro-imidazo[4,5-c]quinolin-2-one]",7 nM,< 5 nM,–,6 nM,2 µg/mL
"COc1ccc(-c2ccc3ncc4[nH]c(=O)n(-c5cn(C)nc5C)c4c3n2)cc1OC [Example 249, 8-(3,4-dimethoxy-phenyl)-1-(1,3-dimethyl-1H-pyrazol-4-yl)-1,3-dihydro-1,3,5,9-tetraaza-cyclopenta[a]naphthalen-2-one]",8 nM,7 nM,16 µg/mL,22 nM,–
"COc1ccc(-c2ccc3ncc4c(c3n2)n(-c2cn(C)nc2C)c(=O)n4C)cc1OC [Example 250, 8-(3,4-Dimethoxy-phenyl)-1-(1,3-dimethyl-1H-pyrazol-4-yl)-3-methyl-1,3-dihydro-1,3,5,9-tetraaza-cyclopenta[a]naphthalen-2-one]",17 nM,41 nM,5 µg/mL,97 nM,–
